Test results as given in patent US11098027B2, “Therapeutic heterocyclic compounds” (Gilead Sciences, Inc., priority 2018, dated 2021).
pEC50: −log10 of the molar value.

Target: T1, IDO1 (Homo sapiens, UniProt P14902)
T1 construct: HeLa cells were treated with a test compound in the presence of IFNγ, which induces IDO1 expression; host or cells: H1-HeLa cells, IDO1 induced with IFNγ
Test: Cell-based (HeLa) assay for measurement of IDO1 inhibition (kynurenine levels in supernatant)
Conditions: H1-HeLa cells, IDO1 induced with IFNγ, 48 hour incubation, kynurenine read by absorbance at 480 nm; geometric mean of a minimum of four determinations
Description: Example B-1. Cell-Based (HeLa) Assay for Measurement of IDO1 Inhibition
To measure IDO1 inhibition in tissue culture, HeLa cells were treated with a test compound in the presence of IFNγ, which induces IDO1 expression. Following incubation, cell supernatants were assayed for kynurenine levels, an indicator of IDO1 activity.
The following day, the test compounds were added in DMSO (0.5% final) at various concentrations, and IDO1 was inducibly expressed by the addition of 50 uL/well of 50 ng/mL of INFγ (Peprotech #300-02) in cell plating media. As a positive control, 50 uL of the cell plating media without IFNγ was added to several wells. Following a 48 hour incubation, the plates were spun down at 1,200 RPM for 5 min at 10° C. 65 μL/well of the supernatant was then transferred to new 384-well plates (Thermo #262160) that contained 10 uL/well of 30% TCA (Sigma # TO699), and the plates were sealed and incubated at 60° C. for 30 min. The plates were then centrifuged for 15 min at 2,000 RPM at 10° C. 40 μL/well of the supernatant was transferred to new 384-well plates (Thermo #262160) and was reacted with 40 μL/well of 2% (w/v) p-dimethlyaminobenzaldehyde (Sigma #156417) in glacial acetic acid (Sigma #A6283). The reaction was incubated at room temperature for 10 min and absorbance at 480 nm was read using a PerkinElmer Envision plate reader.
Data in Table 1 were normalized based on positive (−IFNγ) and negative (+IFNγ) controls and EC50 values were calculated from the fit of the dose—response curves to a four-parameter equation. All EC50 values represent geometric mean values of a minimum of four determinations. These assays generally produced results within 2-fold of the reported mean

T1 sequence (P14902 whole entry): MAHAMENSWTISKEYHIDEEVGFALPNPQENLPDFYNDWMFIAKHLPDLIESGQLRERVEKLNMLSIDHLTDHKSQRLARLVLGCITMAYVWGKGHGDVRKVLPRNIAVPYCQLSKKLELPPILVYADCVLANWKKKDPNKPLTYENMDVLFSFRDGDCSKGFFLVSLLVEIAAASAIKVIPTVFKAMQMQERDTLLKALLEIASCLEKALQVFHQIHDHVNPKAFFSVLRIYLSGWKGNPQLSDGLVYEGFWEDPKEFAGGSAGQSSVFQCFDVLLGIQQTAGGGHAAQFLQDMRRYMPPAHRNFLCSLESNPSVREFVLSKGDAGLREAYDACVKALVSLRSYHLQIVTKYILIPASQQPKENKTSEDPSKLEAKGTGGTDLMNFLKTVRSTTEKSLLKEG

SMILES	pEC50
CC1(C)Oc2c(-c3ccc(C(F)(F)F)c(C(=O)Nc4ccc(F)cc4)c3)cccc2N(c2cnccn2)C1=O [Example 55, 5-(2,2-dimethyl-3-oxo-4-(pyrazin-2-yl)-3,4-dihydro-2H-benzo[b][1,4]-oxazin-8-yl)-N-(4-fluorophenyl)-2-(trifluoromethyl)benzamide]	7.00
CC1(C)C(=O)N(c2cccc(F)c2F)c2cccc(-c3ccc(C(F)(F)F)c(C(=O)Nc4ccc(F)cc4)c3)c21 [Example 38, 5-(1-(2,3-difluorophenyl)-3,3-dimethyl-2-oxoindolin-4-yl)-N-(4-fluorophenyl)-2-(trifluoromethyl)benzamide]	7.26
O=C(Nc1ccc(F)cc1)c1cc(-c2cccc3c2[nH]c(=O)n3-c2ncccn2)ccc1C(F)(F)F [Example 29, N-(4-fluorophenyl)-5-(2-oxo-1-(pyrimidin-2-yl)-2,3-dihydro-1H-benzo[d]imidazol-4-yl)-2-(trifluoromethyl)benzamide]	6.75
Cc1ccc(-c2cccc3c2[nH]c(=O)n3-c2cccc(F)c2F)cc1C(=O)Nc1ccc(F)cc1 [Example 22, 5-(1-(2,3-difluorophenyl)-2-oxo-2,3-dihydro-1H-benzo[d]imidazol-4-yl)-N-(4-fluorophenyl)-2-methylbenzamide]	7.21
CC1(C)Oc2c(-c3ccc(C(F)(F)F)c(C(=O)Nc4ccc(F)cc4)c3)cccc2N(c2ncccn2)C1=O [Example 54, 5-(2,2-dimethyl-3-oxo-4-(pyrimidin-2-yl)-3,4-dihydro-2H-benzo[b][1,4]oxazin-8-yl)-N-(4-fluorophenyl)-2-(trifluoromethyl)benzamide]	5.87
CC1(C)C(=O)N(c2ncccn2)c2cccc(-c3ccc(C(F)(F)F)c(C(=O)Nc4ccc(F)c(Br)c4)c3)c21 [Example 31, N-(3-bromo-4-fluorophenyl)-5-(3,3-dimethyl-2-oxo-1-(pyrimidin-2-yl)indolin-4-yl)-2-(trifluoromethyl)benzamide]	7.24
CC1(C)C(=O)N(c2ncccn2)c2cccc(-c3cc(C(=O)Nc4ccc(F)cc4)c(C(F)(F)F)cn3)c21 [Example 25, 2-(3,3-dimethyl-2-oxo-1-(pyrimidin-2-yl)indolin-4-yl)-N-(4-fluorophenyl)-5-(trifluoromethyl)isonicotinamide]	7.41
CC1(C)C(=O)N(c2ncccn2)c2cccc(-c3ccc(C(F)(F)F)c(C(=O)Nc4ccncc4)c3)c21 [Example 26, 5-(3,3-dimethyl-2-oxo-1-(pyrimidin-2-yl)indolin-4-yl)-N-(pyridin-4-yl)-2-(trifluoromethyl)benzamide]	7.36
CC1(C)C(=O)N(c2cccnc2)c2cccc(-c3ccc(C(F)(F)F)c(-c4nc5cc(F)ccc5[nH]4)c3)c21 [Example 56, 4-(3-(5-fluoro-1H-benzo[d]imidazol-2-yl)-4-(trifluoromethyl)phenyl)-3,3-dimethyl-1-(pyridin-3-yl)indolin-2-one]	5.52
Cc1ncc(-c2cccc3c2C(C)(C)C(=O)N3c2ncccn2)cc1C(=O)Nc1ccc(F)cc1 [Example 14, 5-(3,3-dimethyl-2-oxo-1-(pyrimidin-2-yl)indolin-4-yl)-N-(4-fluorophenyl)-2-methylnicotinamide]	6.98
CC1(C)C(=O)N(c2cccnc2)c2cccc(-c3cnc(C(F)(F)F)c(C(=O)Nc4ccccc4)c3)c21 [Example 58, 5-(3,3-dimethyl-2-oxo-1-(pyridin-3-yl)indolin-4-yl)-N-phenyl-2-(trifluoromethyl)nicotinamide]	7.28
Cc1ccc(-c2cccc3c2C(C)(C)C(=O)N3c2ncccn2)nc1C(=O)Nc1ccc(F)cc1 [Example 41, 6-(3,3-dimethyl-2-oxo-1-(pyrimidin-2-yl)indolin-4-yl)-N-(4-fluorophenyl)-3-methylpicolinamide]	6.37
Cn1cc(N2C(=O)C(C)(C)c3c(-c4ccc(C(F)(F)F)c(C(=O)Nc5ccc(F)cc5)c4)cccc32)cn1 [Example 23, 5-(3,3-dimethyl-1-(1-methyl-1H-pyrazol-4-yl)-2-oxoindolin-4-yl)-N-(4-fluorophenyl)-2-(trifluoromethyl)benzamide]	6.51
Cc1ccc(-c2cccc3c2oc(=O)n3-c2cccc(F)c2F)cc1C(=O)Nc1ccc(F)cc1 [Example 39, 5-(3-(2,3-difluorophenyl)-2-oxo-2,3-dihydrobenzo[d]oxazol-7-yl)-N-(4-fluorophenyl)-2-methylbenzamide]	7.33
CC1(C)C(=O)N(c2ncccn2)c2nccc(-c3ccc(C(F)(F)F)c(C(=O)Nc4ccc(F)c(F)c4)c3)c21 [Example 50, N-(3,4-difluorophenyl)-5-(3,3-dimethyl-2-oxo-1-(pyrimidin-2-yl)-2,3-dihydro-1H-pyrrolo[2,3-b]pyridin-4-yl)-2-(trifluoromethyl)benzamide]	7.30
CC1(C)C(=O)N(c2ncccn2)c2cccc(-c3ccc(OC(F)(F)F)c(C(=O)Nc4ccc(F)cc4)c3)c21 [Example 24, 5-(3,3-dimethyl-2-oxo-1-(pyrimidin-2-yl)indolin-4-yl)-N-(4-fluorophenyl)-2-(trifluoromethoxy)benzamide]	7.32
CC1(C)C(=O)N(c2ncccn2)c2cccc(-c3ccc(C(F)(F)F)c(C(=O)Nc4ccc(F)cc4)n3)c21 [Example 44]	6.95
CC1(C)C(=O)N(c2ccccn2)c2nccc(-c3cnc(C(F)(F)F)c(C(=O)Nc4ccc(F)c(F)c4)c3)c21 [Example 43, N-(3,4-difluorophenyl)-5-(3,3-dimethyl-2-oxo-1-(pyridin-2-yl)-2,3-dihydro-1H-pyrrolo[2,3-b]pyridin-4-yl)-2-(trifluoromethyl)nicotinamide]	6.99

Now those with a higher pEC50, led by results:

pEC50	SMILES
7.62	CC1(C)C(=O)N(c2ccncc2)c2cccc(-c3ccc(C(F)(F)F)c(C(=O)Nc4ccc(F)cc4)c3)c21 [Example 8, 5-(3,3-dimethyl-2-oxo-1-(pyridin-4-yl)indolin-4-yl)-N-(4-fluorophenyl)-2-(trifluoromethyl)benzamide]
7.55	CC1(C)C(=O)N(c2ncccn2)c2cccc(-c3ccc(C(F)(F)F)c(C(=O)Nc4ccccc4)c3)c21 [Example 37, 5-(3,3-dimethyl-2-oxo-1-(pyrimidin-2-yl)indolin-4-yl)-N-phenyl-2-(trifluoromethyl)benzamide]
7.89	CC1(C)C(=O)N(c2cc[nH]n2)c2cccc(-c3ccc(C(F)(F)F)c(C(=O)Nc4ccc(F)cc4)c3)c21 [Example 5, 5-(3,3-dimethyl-2-oxo-1-(1H-pyrazol-3-yl)indolin-4-yl)-N-(4-fluorophenyl)-2-(trifluoromethyl)benzamide]
7.48	CC1(C)C(=O)N(c2cccnc2)c2nccc(-c3ccc(C(F)(F)F)c(C(=O)Nc4ccc(C#N)cn4)c3)c21 [Example 19, N-(5-cyanopyridin-2-yl)-5-(3,3-dimethyl-2-oxo-1-(pyridin-3-yl)-2,3-dihydro-1H-pyrrolo[2,3-b]pyridin-4-yl)-2-(trifluoromethyl)benzamide]
7.43	CC1(C)C(=O)N(c2cccnc2)c2nccc(-c3ccc(C(F)(F)F)c(C(=O)Nc4ccccc4)c3)c21 [Example 42, 5-(3,3-dimethyl-2-oxo-1-(pyridin-3-yl)-2,3-dihydro-1H-pyrrolo[2,3-b]pyridin-4-yl)-N-phenyl-2-(trifluoromethyl)benzamide]
7.72	CC1(C)C(=O)N(c2cccnc2)c2cccc(-c3ccc(C(F)(F)F)c(C(=O)Nc4ccc(F)cc4)c3)c21 [Example 7, 5-(3,3-dimethyl-2-oxo-1-(pyridin-3-yl)indolin-4-yl)-N-(4-fluorophenyl)-2-(trifluoromethyl)benzamide]
7.96	CC1(C)C(=O)N(c2ccncn2)c2cccc(-c3ccc(C(F)(F)F)c(C(=O)Nc4ccc(F)cc4)c3)c21 [Example 3, 5-(3,3-dimethyl-2-oxo-1-(pyrimidin-4-yl)indolin-4-yl)-N-(4-fluorophenyl)-2-(trifluoromethyl)benzamide]
7.47	Cc1ccc(-c2cccc3c2C(C)(C)C(=O)N3c2ccccn2)cc1C(=O)Nc1ccc(F)cc1 [Example 10, 5-(3,3-dimethyl-2-oxo-1-(pyridin-2-yl)indolin-4-yl)-N-(4-fluorophenyl)-2-methylbenzamide]
7.89	CC1(C)C(=O)N(c2ccccn2)c2nccc(-c3ccc(C(F)(F)F)c(C(=O)Nc4ccc(F)cc4)c3)c21 [Example 17, 5-(3,3-dimethyl-2-oxo-1-(pyridin-2-yl)-2,3-dihydro-1H-pyrrolo[2,3-b]pyridin-4-yl)-N-(4-fluorophenyl)-2-(trifluoromethyl)benzamide]
7.48	CC1(C)C(=O)N(c2ccncn2)c2cccc(-c3cnc(C(F)(F)F)c(C(=O)Nc4ccc(F)cc4)c3)c21 [Example 49, 5-(3,3-dimethyl-2-oxo-1-(pyrimidin-4-yl)indolin-4-yl)-N-(4-fluorophenyl)-2-(trifluoromethyl)nicotinamide]
